Reference: US7268125B2 (Azevan Pharmaceuticals, Inc., priority 2001, dated 2007)

Target: T1, human V1a receptor (Homo sapiens, UniProt P37288)
T1 construct: host or cells: CHO cells
Test: Human vasopressin V1a receptor binding assay
Conditions: hV1a cell line (CHO), competition with 1 nM 3H-AVP, 45 minutes at 37° C.; read-out: V1a BINDING AFFINITY (IC50 (nM))
Protocol: Human Vasopression V1a Receptor Binding Assay.
A cell line expressing the human V1a receptor in CHO cells (henceforth referred to as the hV1a cell line) was obtained from Dr. Michael Brownstein, NIMH, Bethesda, Md., USA. The hV1a cDNA sequence is described by Thibonnier et al., Journal of Biological Chemistry, 269, 3304-3310 (1994), and the expression method was the same as described by Morel et al. (1992). The hV1a cell line was grown in alpha-MEM with 10% fetal bovine serum and 250 ug/ml G418 (Gibco, Grand Island, N.Y., USA). For competitive binding assay, hV1a cells were plated into 6-well culture plate at 1:10 dilution from a confluency flask, and maintained in culture for at least two days. Culture medium was then removed, cells were washed with 2 ml binding buffer (25 mM Hepes, 0.25% BSA, 1×DMEM, PH=7.0). To each well, 990 μl binding buffer containing 1 nM 3H-AVP was added, and followed by 10 μl series diluted Example compounds dissolved in DMSO. […] 100 nM cold AVP (Sigma) was used to assess non-specific binding. Cells were incubated for 45 minutes at 37° C., assay mixture was removed and each well was washed three times with PBS (pH=7.4). 1 ml 2% SDS was added per well and plates were let sit for 30 minutes. The whole content in a well was transferred to a scintillation vial. Each well was rinsed with 0.5 ml PBS which was then added to the corresponding vial. Scintillation fluid (Ecoscint, National Diagnostics, Atlanta, Ga.) was then added at 3 ml per vial. Samples were counted in a liquid scintillation counter (Beckman LS3801). IC50 values were calculated by Prism Curve fitting software.
All of the alkanedioic esters and amides exemplified in the foregoing examples were tested in this assay described of Example 201.

T1 sequence (P37288 whole entry): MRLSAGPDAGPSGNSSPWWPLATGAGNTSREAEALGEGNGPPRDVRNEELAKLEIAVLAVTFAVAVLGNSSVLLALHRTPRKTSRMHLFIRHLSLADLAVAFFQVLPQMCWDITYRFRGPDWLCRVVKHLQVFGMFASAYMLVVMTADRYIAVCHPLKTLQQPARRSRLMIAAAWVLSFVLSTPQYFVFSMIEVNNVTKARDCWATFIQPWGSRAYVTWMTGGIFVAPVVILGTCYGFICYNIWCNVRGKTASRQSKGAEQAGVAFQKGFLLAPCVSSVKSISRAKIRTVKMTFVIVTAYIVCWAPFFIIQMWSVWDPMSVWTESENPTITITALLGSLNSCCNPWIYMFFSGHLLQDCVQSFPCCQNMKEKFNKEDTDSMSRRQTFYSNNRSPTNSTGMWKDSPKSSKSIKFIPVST

| Compound | IC50 [nM] |
| --- | --- |
| O=C(CC[C@@H](C(=O)NCc1cccc(C(F)(F)F)c1)N1C(=O)[C@@H](N2C(=O)OC[C@@H]2c2ccccc2)[C@H]1/C=C/c1ccccc1)NCc1cccnc1 [Example 109] | ~100 |
| CCCCN1CCN(C(=O)CCC(C(=O)NCc2cccc(C(F)(F)F)c2)N2C(=O)C(N3C(=O)OCC3c3ccccc3)C2C=Cc2ccccc2)CC1 (single isomer, unassigned) [Example 103] | 0.81 |
| CN(C)CCCNC(=O)CC[C@@H](C(=O)NCc1cccc(C(F)(F)F)c1)N1C(=O)[C@@H](N2C(=O)OC[C@@H]2c2ccccc2)[C@H]1/C=C/c1ccccc1 [Example 106] | ~100 |
| O=C(NCc1cccc(C(F)(F)F)c1)[C@H](CC(=O)N1CCCN(Cc2ccccc2)CC1)N1C(=O)[C@@H](N2C(=O)OC[C@@H]2c2ccccc2)[C@H]1/C=C/c1ccccc1 [Example 82] | < 50 |
| O=C(NCc1cccc(C(F)(F)F)c1)[C@H](CCC(=O)N1CCN(N2CCCC2)CC1)N1C(=O)[C@@H](N2C(=O)OC[C@@H]2c2ccccc2)[C@H]1/C=C/c1ccccc1 [Example 91] | 3.24 |
| CC(C)(C)OC(=O)C(C(=O)NCc1cccc(C(F)(F)F)c1)N1C(=O)[C@@H](N2C(=O)OC[C@@H]2c2ccccc2)[C@H]1/C=C/c1ccccc1 (mixture of isomers) [Example 18, 2(RS)-(tert-Butoxycarbonyl)-2-[3(S)-(4(S)-phenyloxazolidin-2-on-3-yl)-4(R)-(2-styryl)azetidin-2-on-1-yl]acetic acid N-(3-trifluoromethylbenzyl)amide] | 35 |
| CC(C)N1CCN(C(=O)CCC(C(=O)NCc2cccc(C(F)(F)F)c2)N2C(=O)C(N3C(=O)OCC3c3ccccc3)C2C=Cc2ccccc2)CC1 (single isomer, unassigned) [Example 104] | 1.85 |
| CCN(CC)CCN1CCN(C(=O)C[C@@H](C(=O)NCc2cccc(C(F)(F)F)c2)N2C(=O)[C@@H](N3C(=O)OC[C@@H]3c3ccccc3)[C@H]2/C=C/c2ccccc2)CC1 [Example 81] | < 100 |
| O=C(NCc1cccc(C(F)(F)F)c1)C(C(=O)N1CCN(CCc2ccccc2)CC1)N1C(=O)[C@@H](N2C(=O)OC[C@@H]2c2ccccc2)[C@H]1/C=C/c1ccccc1 (mixture of isomers) [Example 38] | < 25 |
| O=C(C[C@@H](C(=O)NCc1cccc(C(F)(F)F)c1)N1C(=O)[C@@H](N2C(=O)OC[C@@H]2c2ccccc2)[C@H]1/C=C/c1ccccc1)NC1CCN(Cc2ccccc2)CC1 [Example 63] | 1.84 |
| O=C(NCc1cccc(C(F)(F)F)c1)[C@@H](CCC(=O)N1CCC(N2CCCCC2)CC1)N1C(=O)[C@@H](N2C(=O)OC[C@@H]2c2ccccc2)[C@H]1/C=C/c1ccccc1 [Example 135] | ~50 |
| O=C(NCc1cccc(C(F)(F)F)c1)[C@H](CCC(=O)N1CCN(Cc2ccc3c(c2)OCO3)CC1)N1C(=O)[C@@H](N2C(=O)OC[C@@H]2c2ccccc2)[C@H]1/C=C/c1ccccc1 [Example 96] | 4.35 |
| CC(C)(C)OC(=O)C[C@@H](C(=O)NCc1cccc(C(F)(F)F)c1)N1C(=O)[C@@H](N2C(=O)OC[C@@H]2c2ccccc2)[C@H]1/C=C/c1ccccc1 [Example 19, 2(S)-(tert-Butoxycarbonylmethyl)-2-[3(S)-(4(S)-phenyloxazolidin-2-on-3-yl)-4(R)-(2-styryl)azetidin-2-on-1-yl]acetic acid N-(3-trifluoromethylbenzyl)amide] | 35 |
| O=C(NCc1cccc(C(F)(F)F)c1)[C@H](CCC(=O)N1CCN(CC2CCCCC2)CC1)N1C(=O)[C@@H](N2C(=O)OC[C@@H]2c2ccccc2)[C@H]1/C=C/c1ccccc1 [Example 120] | 0.75 |
| O=C(NCc1cccc(C(F)(F)F)c1)C(C(=O)N1CCC(N2CCCCC2)CC1)N1C(=O)[C@@H](N2C(=O)OC[C@@H]2c2ccccc2)[C@H]1/C=C/c1ccccc1 (mixture of isomers) [Example 37] | 5.5 |
| CCCCN1CCN(C(=O)C[C@@H](C(=O)NCc2cccc(C(F)(F)F)c2)N2C(=O)[C@@H](N3C(=O)OC[C@@H]3c3ccccc3)[C@H]2/C=C/c2ccccc2)CC1 [Example 59] | < 100 |
| CCCCN1CCN(C(=O)C(C(=O)NCc2cccc(C(F)(F)F)c2)N2C(=O)[C@@H](N3C(=O)OC[C@@H]3c3ccccc3)[C@H]2/C=C/c2ccccc2)CC1 (mixture of isomers) [Example 40] | 11 |
| O=C(NCc1cccc(C(F)(F)F)c1)C(C(=O)NC1CCN(Cc2ccccc2)CC1)N1C(=O)[C@@H](N2C(=O)OC[C@@H]2c2ccccc2)[C@H]1/C=C/c1ccccc1 (mixture of isomers) [Example 39] | 23 |
| O=C(NCc1cccc(C(F)(F)F)c1)[C@@H](CCC(=O)N1CCN(C2CCCCC2)CC1)N1C(=O)[C@@H](N2C(=O)OC[C@@H]2c2ccccc2)[C@H]1/C=C/c1ccccc1 [Example 139] | 9.5 |

| Compound | IC50 [nM] |
| --- | --- |
| O=C(NCc1cccc(C(F)(F)F)c1)[C@H](CC(=O)N1CCN(C2CCCCC2)CC1)N1C(=O)[C@@H](N2C(=O)OC[C@@H]2c2ccccc2)[C@H]1/C=C/c1ccccc1 [Example 66] | ~50 |
| O=C(C[C@@H](C(=O)NCc1cccc(C(F)(F)F)c1)N1C(=O)[C@@H](N2C(=O)OC[C@@H]2c2ccccc2)[C@H]1/C=C/c1ccccc1)N[C@H]1CCN(Cc2ccccc2)C1 [Example 85] | 5.87 |
| O=C(NCc1cccc(C(F)(F)F)c1)C(C(=O)N1CCN(C2CCCCC2)CC1)N1C(=O)[C@@H](N2C(=O)OC[C@@H]2c2ccccc2)[C@H]1/C=C/c1ccccc1 (mixture of isomers) [Example 42] | < 20 |
| O=C(NCc1cccc(C(F)(F)F)c1)[C@H](CCC(=O)N1CCN(CCN2CCOCC2)CC1)N1C(=O)[C@@H](N2C(=O)OC[C@@H]2c2ccccc2)[C@H]1/C=C/c1ccccc1 [Example 112] | 1.34 |
| CC(C)N1CCN(C(=O)C(C(=O)NCc2cccc(C(F)(F)F)c2)N2C(=O)[C@@H](N3C(=O)OC[C@@H]3c3ccccc3)[C@H]2/C=C/c2ccccc2)CC1 (mixture of isomers) [Example 41] | < 20 |
| CN(C)CCNC(=O)CC[C@@H](C(=O)NCc1cccc(C(F)(F)F)c1)N1C(=O)[C@@H](N2C(=O)OC[C@@H]2c2ccccc2)[C@H]1/C=C/c1ccccc1 [Example 100] | < 100 |
| O=C(CC[C@@H](C(=O)NCc1cccc(C(F)(F)F)c1)N1C(=O)[C@@H](N2C(=O)OC[C@@H]2c2ccccc2)[C@H]1/C=C/c1ccccc1)NCCN1CCCCC1 [Example 87] | 15 |
| CC(C)N1CCN(C(=O)CC[C@H](C(=O)NCc2cccc(C(F)(F)F)c2)N2C(=O)[C@@H](N3C(=O)OC[C@@H]3c3ccccc3)[C@H]2/C=C/c2ccccc2)CC1 [Example 138] | 21 |
| O=C(NCc1cccc(C(F)(F)F)c1)[C@H](CC(=O)N1CCN(CCN2CCCC2)CC1)N1C(=O)[C@@H](N2C(=O)OC[C@@H]2c2ccccc2)[C@H]1/C=C/c1ccccc1 [Example 78] | < 100 |
| O=C(NCc1cccc(C(F)(F)F)c1)[C@H](CCC(=O)N1CCN(Cc2ccccc2)CC1)N1C(=O)[C@@H](N2C(=O)OC[C@@H]2c2ccccc2)[C@H]1/C=C/c1ccccc1 [Example 95] | 1.76 |
| O=C(CC[C@@H](C(=O)NCc1cccc(C(F)(F)F)c1)N1C(=O)[C@@H](N2C(=O)OC[C@@H]2c2ccccc2)[C@H]1/C=C/c1ccccc1)NC1CCN(Cc2ccccc2)CC1 [Example 107] | < 50 |
| O=C(NCc1cccc(C(F)(F)F)c1)[C@H](CC(=O)N1CCN(C2CCCC2)CC1)N1C(=O)[C@@H](N2C(=O)OC[C@@H]2c2ccccc2)[C@H]1/C=C/c1ccccc1 [Example 77] | < 100 |
| CC(C)(C)OC(=O)CC[C@@H](C(=O)NCc1cccc(C(F)(F)F)c1)N1C(=O)[C@@H](N2C(=O)OC[C@@H]2c2ccccc2)[C@H]1/C=C/c1ccccc1 [Example 20, 2(S)-(tert-Butoxycarbonylethyl)-2-[3(S)-(4(S)-phenyloxazolidin-2-on-3-yl)-4(R)-(2-styryl)azetidin-2-on-1-yl]acetic acid N-(3-trifluoromethylbenzyl)amide] | 35 |
| O=C(NCc1cccc(C(F)(F)F)c1)[C@H](CCC(=O)N1CCN(CCC2CCCCC2)CC1)N1C(=O)[C@@H](N2C(=O)OC[C@@H]2c2ccccc2)[C@H]1/C=C/c1ccccc1 [Example 111] | 1.31 |
| O=C(NCc1cccc(C(F)(F)F)c1)[C@@H](CCC(=O)N1CCN(CCc2ccccc2)CC1)N1C(=O)[C@@H](N2C(=O)OC[C@@H]2c2ccccc2)[C@H]1/C=C/c1ccccc1 [Example 136] | 11 |
| O=C(NCc1cccc(C(F)(F)F)c1)[C@H](CCC(=O)N1CCN(CC(=O)N2CCCC2)CC1)N1C(=O)[C@@H](N2C(=O)OC[C@@H]2c2ccccc2)[C@H]1/C=C/c1ccccc1 [Example 101] | ~100 |
| CCCCN1CCN(C(=O)CC[C@H](C(=O)NCc2cccc(C(F)(F)F)c2)N2C(=O)[C@@H](N3C(=O)OC[C@@H]3c3ccccc3)[C@H]2/C=C/c2ccccc2)CC1 [Example 137] | 17 |
| CN(C)CCN(Cc1ccccc1)C(=O)CC[C@@H](C(=O)NCc1cccc(C(F)(F)F)c1)N1C(=O)[C@@H](N2C(=O)OC[C@@H]2c2ccccc2)[C@H]1/C=C/c1ccccc1 [Example 108] | ~100 |
